Holding throughout (type): cell-based
In data set [1] the test system is normal cells (HPNE, HAF). Put plainly: MTS proliferation assay, normal cells. The conditions noted are these: 48 h. The protocol:
(§1) Fig. 4 N4 suppresses pancreatic cancer cell proliferation and migration and induces apoptosis. A Pancreatic cancer cells (CAPAN-2, PANC-1, MIAPACA-2, BXPC-3, HPAC, and CFPAC-1) and normal cells (HPNE, HAF) were incubated with the indicated concentration of N4 for 48 h. MTS assays were performed to detect the N4-mediated inhibition of cell proliferation. Data are shown as mean ± SD, *P < 0.05, **P < 0.01, ***P < 0.001, ****P < 0.0001, n.s. not significant by one-way ANOVA followed by multiple comparisons. B, C CAPAN-2, PANC-1, and MIAPACA-2 cells were treated with N4 (B) or C188-9 (C) for 7 days. The cells fixed and stained, and colony numbers were calculated. Experiments were carried out in triplicate with identical results obtained. […] Apoptotic cells were analyzed as described in Materials and Methods. […] In F, after 48 h transfection, transfected cells were seeded in 96-well plates, and cells were enumerated at day 1, day 2, and day 4, In G, different cells transfected with different siRNA were treated with the indicated concentrations of N4, and cell viability measured after a 48 h treatment. Data are expressed as mean ± SD, *P < 0.05, ***P < 0.001, n.s. not significant by one-way ANOVA followed by multiple comparisons. […] Data are expressed as mean ± SD, *P < 0.05, ***P < 0.001, n.s. not significant; Student’s t tests were performed. […]
In general terms: Tetrazolium assays rely on reduction of a dye to a coloured formazan, in cell work by metabolically active cells.

Data set [2] deals with Pancreatic cancer cells (CAPAN-2, PANC-1, MIAPACA-2, BXPC-3, HPAC, and CFPAC-1). Put plainly: MTS proliferation assay, pancreatic cancer cells. The note with it: 48 h. On the procedure: as §1
The subject of data set [3] is STAT3 Tyr705 phosphorylation. Description: Western blot of STAT3 activation in pancreatic cancer cells. On the procedure:
Fig. 2 N4 inhibits STAT3 activation in pancreatic cancer cells. A PANC-1, CAPAN-2, and BXPC-3 cells were treated with the indicated concentrations of N4 for 24 h. Then, p-STAT3 (Y705), p-STAT3 (S727), and STAT3 were detected by western blot assays with glyceraldehyde 3-phosphate dehydrogenase (GAPDH) used as the loading control. B Pancreatic cancer cells were starved in a medium lacking fetal bovine serum (FBS; basic medium) for 24 h, and then pretreated with N4 in basic medium for 24 h. Then, stimulated with IL-6 (20 ng/mL) for 30 min and lysed for western blot analysis using the indicated antibodies. C Expression levels of STAT3 downstream genes were detected by western blot following treatment of PANC-1 and CAPAN-2 cells with N4. D PANC-1 cells were seeded and allowed to attach, and then pretreated with 2 μM of N4 in FBS-free medium for 24 h. The cells were stimulated for 30 min using IL-6 (20 ng/mL). The STAT3 antibody (green) and 4, 6-diamidino-2-phenylindole (DAPI) (blue) was used for staining and STAT3 and the nucleus, respectively. The samples were photographed and analyzed. The scale bar represents 20 μm. E After 24 h treatment with 2 μM N4, PANC-1 cells were stimulated with IL-6 (20 ng/mL) for 30 min, and the cytoplasmic and nuclear extractions were analyzed by western blot. p-STAT3 (Y705) was used to detect STAT3, and GAPDH and H3 were used as the cytoplasm and nucleus internal control, respectively.
Western blotting was performed as previously described. Briefly, cells were treated with indicated compounds and then lysed by boiling. […]

Where [4] appears, read: PANC-1, CAPAN-2, BXPC-3 cells, 24 h.

The results in this text go back to article PMC7906907, “Targeting STAT3 by a small molecule suppresses pancreatic cancer progression” (Oncogene, 2021).

For `COc1cc2c(cc1C(=O)Nc1cccc3cccnc13)CCC1C(C)(C)C(=O)C(C#N)=C[C@]21C` (some centres unmarked) [N4], the “effect on two normal cell types” value in data set [1] is recorded as “no significant effect”. Also, the “proliferation of pancreatic cancer cells” value in data set [2] is on record as “effectively inhibited”. Also, in data set [3] (setting [4]), the “STAT3 Tyr705 phosphorylation” value is listed as “selectively blocked”; the “Ser-727 phosphorylation and STAT3 protein expression” value is recorded as “no obvious inhibition”. Further, the “SHP2 (PTPase), p-STAT1, p-STAT5, p-extracellular signal-regulated kinase, and p-AKT levels” value in data set [3] (western blots) was “no obvious influence”.
